PubChem BioAssay AID1963980 (Molecular Pharmacology Branch, DTP, NCI, 2024)
pIC50: −log10 of the molar value.

System: 475296-252-R-J1-PDC spheroid viability
Test: Anticancer human tumor 475296-252-R-J1-PDC patient-derived rectal carcinoma cell line growth inhibition [PI3K]
Conditions: spheroids with HUVEC and MSC; for pIC50: curve of first compound; for viability, T/C: stronger effect = lower value
Summary of the method: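 Stroma-containing spheroids: tumor line, pooled-donor HUVEC, hMSC. Treatments: targeted agents with PI3K inhibitors. Dosing: clinically relevant, half-log spacing, 10 microM ceiling without known Cmax. Read-out: cell viability.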

[1] = second compound 0.0316 µM, first compound 0.0316 µM
[2] = second compound 0.0316 µM, first compound 0.1 µM
[3] = second compound 0.0316 µM, first compound 0.316 µM
[4] = second compound 0.0316 µM, first compound 1 µM
[5] = second compound 0.0316 µM, first compound 3.16 µM
[6] = second compound 0.0316 µM, first compound 10 µM
[7] = second compound 0.1 µM, first compound 0.0316 µM
[8] = second compound 0.1 µM, first compound 0.1 µM
[9] = second compound 0.1 µM, first compound 0.316 µM
[10] = second compound 0.1 µM, first compound 1 µM
[11] = second compound 0.1 µM, first compound 3.16 µM
[12] = second compound 0.1 µM, first compound 10 µM
[13] = second compound 0.316 µM, first compound 0.0316 µM
[14] = second compound 0.316 µM, first compound 0.1 µM
[15] = second compound 0.316 µM, first compound 0.316 µM
[16] = second compound 0.316 µM, first compound 1 µM
[17] = second compound 0.316 µM, first compound 3.16 µM
[18] = second compound 0.316 µM, first compound 10 µM
[19] = second compound 1 µM, first compound 0.0316 µM
[20] = second compound 1 µM, first compound 0.1 µM
[21] = second compound 1 µM, first compound 0.316 µM
[22] = second compound 1 µM, first compound 1 µM
[23] = second compound 1 µM, first compound 3.16 µM
[24] = second compound 1 µM, first compound 10 µM
[25] = second compound 3.16 µM, first compound 0.0316 µM
[26] = second compound 3.16 µM, first compound 0.1 µM
[27] = second compound 3.16 µM, first compound 0.316 µM
[28] = second compound 3.16 µM, first compound 1 µM
[29] = second compound 3.16 µM, first compound 3.16 µM
[30] = second compound 3.16 µM, first compound 10 µM
[31] = second compound 10 µM, first compound 0.0316 µM
[32] = second compound 10 µM, first compound 0.1 µM
[33] = second compound 10 µM, first compound 0.316 µM
[34] = second compound 10 µM, first compound 1 µM
[35] = second compound 10 µM, first compound 3.16 µM
[36] = second compound 10 µM, first compound 10 µM
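Note: spheroids exposed to agents for seven days before readout.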

With CC1(C)CCC(CN2CCN(c3ccc(C(=O)NS(=O)(=O)c4ccc(NCC5CCOCC5)c([N+](=O)[O-])c4)c(Oc4cnc5[nH]ccc5c4)c3)CC2)=C(c2ccc(Cl)cc2)C1 + Cc1nc(NC(=O)N2CCCC2C(N)=O)sc1-c1ccnc(C(C)(C)C(F)(F)F)c1 the pIC50 (second compound 0.0316 µM) was under 5.00, the pIC50 (second compound 0.1 µM) was under 5.00 and the pIC50 (second compound 0.316 µM) was under 5.00. For the same compound, the pIC50 (second compound 1 µM) was under 5.00, the pIC50 (second compound 3.16 µM) was under 5.00 and the pIC50 (second compound 10 µM) was under 5.00. The viability, T/C [1] was 107%, the viability, T/C [2] was 90.1% and the viability, T/C [3] was 95.3%. For the same compound, the viability, T/C [4] was 87.2%, the viability, T/C [5] was 95.7% and the viability, T/C [6] was 62.5%. For the same compound, the viability, T/C [7] was 99.3%, the viability, T/C [8] was 85.6% and the viability, T/C [9] was 98.9%. The viability, T/C [10] was 93%, the viability, T/C [11] was 94.2% and the viability, T/C [12] was 63.5%. The viability, T/C [13] was 99.7%, the viability, T/C [14] was 97.5% and the viability, T/C [15] was 89.9%. For the same compound, the viability, T/C [16] was 84.5%, the viability, T/C [17] was 84.2% and the viability, T/C [18] was 69%. For the same compound, the viability, T/C [19] was 90.8%, the viability, T/C [20] was 93.2% and the viability, T/C [21] was 97.1%. For the same compound, the viability, T/C [22] was 93.3%, the viability, T/C [23] was 88.3% and the viability, T/C [24] was 73.3%. For the same compound, the viability, T/C [25] was 83.4%, the viability, T/C [26] was 82% and the viability, T/C [27] was 95.5%. The viability, T/C [28] was 90.5%, the viability, T/C [29] was 87.5% and the viability, T/C [30] was 63.3%. For the same compound, the viability, T/C [31] was 86.5%, the viability, T/C [32] was 87.6% and the viability, T/C [33] was 89.4%. It also gave a viability, T/C [34] of 89%, a viability, T/C [35] of 87.3% and a viability, T/C [36] of 56.7%.
For CCCS(=O)(=O)Nc1ccc(F)c(C(=O)c2c[nH]c3ncc(-c4ccc(Cl)cc4)cc23)c1F + Cc1nc(NC(=O)N2CCCC2C(N)=O)sc1-c1ccnc(C(C)(C)C(F)(F)F)c1, the pIC50 (second compound 0.0316 µM) was under 5.00, the pIC50 (second compound 0.1 µM) was under 5.00 and the pIC50 (second compound 0.316 µM) was under 5.00. The pIC50 (second compound 1 µM) was under 5.00, the pIC50 (second compound 3.16 µM) was under 5.00 and the pIC50 (second compound 10 µM) was under 5.00. The viability, T/C [1] was 88.8%, the viability, T/C [2] was 95.5% and the viability, T/C [3] was 92.2%. The viability, T/C [4] was 91.5%, the viability, T/C [5] was 80.5% and the viability, T/C [6] was 94%. For the same compound, the viability, T/C [7] was 106%, the viability, T/C [8] was 94.6% and the viability, T/C [9] was 88%. It also gave a viability, T/C [10] of 81.2%, a viability, T/C [11] of 98.7% and a viability, T/C [12] of 100%. It also gave a viability, T/C [13] of 85%, a viability, T/C [14] of 94.8% and a viability, T/C [15] of 98.2%. The viability, T/C [16] was 92.6%, the viability, T/C [17] was 91.1% and the viability, T/C [18] was 96.3%. It also gave a viability, T/C [19] of 83.1%, a viability, T/C [20] of 97.3% and a viability, T/C [21] of 88.2%. The viability, T/C [22] was 89.8%, the viability, T/C [23] was 89.3% and the viability, T/C [24] was 82%. For the same compound, the viability, T/C [25] was 83.6%, the viability, T/C [26] was 92.8% and the viability, T/C [27] was 87.6%. It also gave a viability, T/C [28] of 92%, a viability, T/C [29] of 89.9% and a viability, T/C [30] of 73%. It also gave a viability, T/C [31] of 80.4%, a viability, T/C [32] of 82% and a viability, T/C [33] of 82.1%. It also gave a viability, T/C [34] of 80.4%, a viability, T/C [35] of 76.3% and a viability, T/C [36] of 66.1%.
